The experiment deals with T1, human vanilloid-1 (hVR-1) in hVR-1-HEK293 cell line (Homo sapiens, UniProt Q8NER1).
T1 construct: expressed in transfected cells; host or cells: HEK293 Tet-on strain, doxycycline-induced
Kind of experiment: Inhibitory effect on calcium influx via a vanilloid receptor (capsaicin-stimulated, Fluo-3/AM). Type of experiment: cell-based. The following applies: hVR-1-HEK293 cells, 1 μM of capsaicin, compounds 0.015˜2000 nM; read-out: I.A. (inhibitory activity), IC50 on intracellular calcium influx. The protocol: The cell line can modulate the expression of VR-1, depending on whether doxycycline, a derivative of tetracycline, is present or not. […] Specifically, hVR-1-HEK293 cells were cultured in a T75 flask to about 80% confluency, separated from the flask by treating with trypsin solution, and then collected by centrifugation. The cells were suspended in a medium containing 1 μg/mL of doxycycline, and the resulting suspension was diluted to a concentration of 2˜4×10^5 cells/mL […], of the cell suspension was placed in each well of a 96-well black plate. The cells were cultured in 5% CO2 incubator at 37° C. for 2 days, and used for the following procedure. […] The cells prepared in 1) above were cultured at 37° C. for 90 min in a solution containing Fluo-3/AM, a fluorescent dye, as a calcium indicator so that the fluorescent dye was permeated into the cells. […] In order to stimulate calcium influx through a vanilloid receptor, the cells were treated with 1 μM of capsaicin. […] The obtained data were input to the Hill equation represented by the following formula I and the values were analyzed: Intracellular calcium influx= [(fluorescent intensity of experimental group−fluorescent intensity of background)/(fluorescent intensity of positive control−fluorescent intensity of background)]*100 [Formula I] The inhibitory activities were evaluated from the obtained intracellular calcium influx values according to the following criteria.

T1 sequence (Q8NER1 whole entry): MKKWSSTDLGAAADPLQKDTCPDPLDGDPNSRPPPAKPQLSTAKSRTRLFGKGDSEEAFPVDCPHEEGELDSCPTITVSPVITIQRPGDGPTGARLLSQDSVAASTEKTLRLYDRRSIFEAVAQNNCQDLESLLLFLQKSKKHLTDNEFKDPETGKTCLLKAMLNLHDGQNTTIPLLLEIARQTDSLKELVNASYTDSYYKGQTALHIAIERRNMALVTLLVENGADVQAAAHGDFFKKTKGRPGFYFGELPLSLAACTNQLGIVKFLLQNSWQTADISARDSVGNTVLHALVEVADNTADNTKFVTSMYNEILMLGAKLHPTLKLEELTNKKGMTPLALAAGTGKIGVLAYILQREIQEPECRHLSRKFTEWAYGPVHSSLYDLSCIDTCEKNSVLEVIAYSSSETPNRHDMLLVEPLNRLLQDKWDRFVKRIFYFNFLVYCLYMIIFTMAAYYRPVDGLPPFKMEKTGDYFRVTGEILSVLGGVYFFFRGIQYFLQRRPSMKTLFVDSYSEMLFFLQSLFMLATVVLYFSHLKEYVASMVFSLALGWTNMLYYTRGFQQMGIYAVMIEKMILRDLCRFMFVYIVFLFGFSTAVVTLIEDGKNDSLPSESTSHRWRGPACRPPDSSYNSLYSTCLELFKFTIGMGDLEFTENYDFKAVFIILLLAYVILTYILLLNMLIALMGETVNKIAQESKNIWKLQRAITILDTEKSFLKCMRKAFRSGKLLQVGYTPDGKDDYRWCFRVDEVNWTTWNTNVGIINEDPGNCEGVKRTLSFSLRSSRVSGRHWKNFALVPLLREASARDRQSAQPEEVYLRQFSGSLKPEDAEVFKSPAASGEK

Take `CC(C)(C)c1ccc2nc(-c3cccc4c3OCCN4c3ncccc3Cl)[nH]c2c1` [Example 6, 8-(6-tert-butyl-1H-benzimidazol-2-yl)-4-(3-chloro-pyridin-2-yl)-3,4-dihydro-2H-benzo[1,4]oxazine]: the half-inhibitory concentration (IC50) fell in the range of 101 to 500 nM.
Under `CC(C)(C)c1ccc2nc(-c3cccc4c3OCCN4c3ncccc3C(F)(F)F)[nH]c2c1` [Example 7, 8-(6-tert-butyl-1H-benzimidazol-2-yl)-4-(3-trifluoromethyl-pyridin-2-yl)-3,4-dihydro-2H-benzo[1,4]oxazine] stands greater than 1000 nM; under `CC(C)(C)c1ccc2nc(-c3cccc4c3OCCN4c3ccc(C(F)(F)F)cn3)[nH]c2c1` [Example 8, 8-(6-tert-butyl-1H-benzimidazol-2-yl)-4-(5-trifluoromethyl-pyridin-2-yl)-3,4-dihydro-2H-benzo[1,4]oxazine], 101 to 500 nM; under `CC(C)(C)c1ccc2nc(-c3cccc4c3OCCN4c3ncc(C(F)(F)F)cc3Cl)[nH]c2c1` [Example 9, 8-(6-tert-butyl-1H-benzimidazol-2-yl)-4-(3-chloro-5-trifluoromethyl-pyridin-2-yl)-3,4-dihydro-2H-benzo[1,4]oxazine], 101 to 500 nM.
Under `Cc1ccc(N2CCOc3c(-c4nc5cc(C(C)(C)C)ccc5[nH]4)cccc32)nc1` [Example 10, 8-(5-tert-butyl-1H-benzimidazol-2-yl)-4-(5-methyl-pyridin-2-yl)-3,4-dihydro-2H-benzo[1,4]oxazine] stands less than 20 nM.
Under `CC(C)(C)c1ccc2[nH]c(-c3cccc4c3OCCN4c3ncc(Cl)cc3Cl)nc2c1` [Example 11, 8-(5-tert-butyl-1H-benzimidazol-2-yl)-4-(3,5-dichloro-pyridin-2-yl)-3,4-dihydro-2H-benzo[1,4]oxazine] stands 20 to 100 nM; under `CC(C)(C)c1ccc2[nH]c(-c3cccc4c3OCCN4c3ccccn3)nc2c1` [Example 12, 8-(5-tert-butyl-1H-benzimidazol-2-yl)-4-pyridin-2-yl-3,4-dihydro-2H-benzo[1,4]oxazine], 101 to 500 nM.
In the case of `CC(C)(C)c1ccc2[nH]c(-c3cccc4c3OCCN4c3ccc(Br)cn3)nc2c1` [Example 13, 4-(5-bromo-pyridin-2-yl)-8-(5-tert-butyl-1H-benzimidazol-2-yl)-3,4-dihydro-2H-benzo[1,4]oxazine], the IC50 lay within 20 to 100 nM.
Under `CC(C)(C)c1ccc2[nH]c(-c3cccc4c3OCCN4c3ccc(Cl)cn3)nc2c1` [Example 14, 8-(5-tert-butyl-1H-benzimidazol-2-yl)-4-(5-chloro-pyridin-2-yl)-3,4-dihydro-2H-benzo[1,4]oxazine] stands 20 to 100 nM.
The value for `CC(C)(C)c1ccc2[nH]c(-c3cccc4c3OCCN4c3ccc(CO)cn3)nc2c1` [Example 15, 6-[8-(5-tert-butyl-1H-benzimidazol-2-yl)-2,3-dihydro-benzo[1,4]oxazin-4-yl]-pyridin-3-yl-methanol] was 101 to 500 nM.
The value for `FC(F)(F)c1ccc2nc(-c3cccc4c3OCCN4c3ncccc3Cl)[nH]c2c1` [Example 16, 4-(3-chloro-pyridin-2-yl)-8-(6-trifluoromethyl-1H-benzimidazol-2-yl)-3,4-dihydro-2H-benzo[1,4]oxazine] was 101 to 500 nM.
Take `FC(F)(F)c1ccc2nc(-c3cccc4c3OCCN4c3ncccc3C(F)(F)F)[nH]c2c1` [Example 17, 8-(6-trifluoromethyl-1H-benzimidazol-2-yl)-4-(3-trifluoromethyl-pyridin-2-yl)-3,4-dihydro-2H-benzo[1,4]oxazine]: the IC50 is greater than 1000 nM.
The value for `Clc1cccnc1N1CCOc2c(-c3nc4ccc(Br)cc4[nH]3)cccc21` [Example 21, 8-(6-bromo-1H-benzimidazol-2-yl)-4-(3-chloro-pyridin-2-yl)-3,4-dihydro-2H-benzo[1,4]oxazine] was 101 to 500 nM.
Consider `Clc1ccc2nc(-c3cccc4c3OCCN4c3ncccc3Cl)[nH]c2c1` [Example 22, 8-(6-chloro-1H-benzimidazol-2-yl)-4-(3-chloro-pyridin-2-yl)-3,4-dihydro-2H-benzo[1,4]oxazine], for which the IC50 is greater than 1000 nM.
`Cc1ccc(N2CCOc3c(-c4nc5ccc(Br)cc5[nH]4)cccc32)nc1` [Example 26, 8-(6-bromo-1H-benzimidazol-2-yl)-4-(5-methyl-pyridin-2-yl)-3,4-dihydro-2H-benzo[1,4]oxazine]: the IC50 is 101 to 500 nM.
The value for `Cc1ccc(N2CCOc3c(-c4nc5cc(Cl)ccc5[nH]4)cccc32)nc1` [Example 27, 8-(5-chloro-1H-benzimidazol-2-yl)-4-(5-methyl-pyridin-2-yl)-3,4-dihydro-2H-benzo[1,4]oxazine] was 101 to 500 nM; that for `Cc1ccc(N2CCOc3c(-c4nc5c(Cl)cc(C(F)(F)F)cc5[nH]4)cccc32)nc1` [Example 29, 8-(4-chloro-6-trifluoromethyl-1H-benzimidazol-2-yl)-4-(5-methyl-pyridin-2-yl)-3,4-dihydro-2H-benzo[1,4]oxazine] was 101 to 500 nM.
Under `Cc1ccc(N2CCOc3c(-c4nc5c(C(F)(F)F)cc(C(F)(F)F)cc5[nH]4)cccc32)nc1` [Example 30, 8-(4,6-bis-trifluoromethyl-1H-benzimidazol-2-yl)-4-(5-methyl-pyridin-2-yl)-3,4-dihydro-2H-benzo[1,4]oxazine] stands 101 to 500 nM; under `Cc1ccc(N2CCOc3c(-c4nc5c(Br)cc(Br)cc5[nH]4)cccc32)nc1` [Example 32, 8-(4,6-dibromo-1H-benzimidazol-2-yl)-4-(5-methyl-pyridin-2-yl)-3,4-dihydro-2H-benzo[1,4]oxazine], 101 to 500 nM; under `Cc1ccc(N2c3cccc(-c4nc5c(Br)cc(OC(F)(F)F)cc5[nH]4)c3OC[C@@H]2CO)nc1` [Example 54, [(S)-8-(4-bromo-6-trifluoromethoxy-1H-benzimidazol-2-yl)-4-(5-methyl-pyridine-2-yl)-3,4-dihydro-2H-benzo[1,4]oxazin-3-yl]-methanol], less than 20 nM.
The value for `Cc1ccc(N2c3cccc(-c4nc5c(F)cc(F)cc5[nH]4)c3OC[C@@H]2CO)nc1` [Example 55, [(S)-8-(4,6-difluoro-1H-benzo[d]imidazol-2-yl)-4-(5-methyl-pyridin-2-yl)-3,4-dihydro-2H-benzo[b][1,4]oxazin-3-yl]-methanol] was less than 20 nM; that for `Cc1ccc(N2c3cccc(-c4nc5ccc(C#N)cc5[nH]4)c3OC[C@@H]2CO)nc1` [Example 56, (S)-2-(3-(hydroxymethyl)-4-(5-methyl-pyridin-2-yl)-3,4-dihydro-2H-benzo[b][1,4]oxazin-8-yl)-1H-benzo[d]imidazol-6-carbonitrile] was 101 to 500 nM.
Turning to `C=Cc1ccc(N2c3cccc(-c4nc5ccc(C(C)(C)C)cc5[nH]4)c3OC[C@@H]2CO)nc1` [Example 57, [(S)-8-(6-tert-butyl-1H-benzimidazol-2-yl)-4-(5-vinyl-pyridin-2-yl)-3,4-dihydro-2H-benzo[1,4]oxazin-3-yl]-methanol], the IC50 is 20 to 100 nM.
Consider `C=Cc1ccc(N2c3cccc(-c4nc5ccc(C(F)(F)F)cc5[nH]4)c3OC[C@@H]2CO)nc1` [Example 58, [(S)-8-(6-trifluoromethyl-1H-benzimidazol-2-yl)-4-(5-vinyl-pyridin-2-yl)-3,4-dihydro-2H-benzo[1,4]oxazin-3-yl]-methanol], for which the IC50 lay in the range of 20 to 100 nM.
Under `C=Cc1ccc(N2c3cccc(-c4nc5ccc(F)cc5[nH]4)c3OC[C@@H]2CO)nc1` [Example 61, [(S)-8-(6-fluoro-1H-benzimidazol-2-yl)-4-(5-vinyl-pyridin-2-yl)-3,4-dihydro-2H-benzo[1,4]oxazin-3-yl]-methanol] stands 20 to 100 nM; under `C=Cc1ccc(N2c3cccc(-c4nc5c(F)cc(Br)cc5[nH]4)c3OC[C@@H]2CO)nc1` [Example 62, [(S)-8-(6-bromo-4-fluoro-1H-benzimidazol-2-yl)-4-(5-vinyl-pyridin-2-yl)-3,4-dihydro-2H-benzo[1,4]oxazin-3-yl]-methanol], less than 20 nM.
The value for `C=Cc1ccc(N2c3cccc(-c4nc5c(F)cc(F)cc5[nH]4)c3OC[C@@H]2CO)nc1` [Example 63, [(S)-8-(4,6-difluoro-1H-benzimidazol-2-yl)-4-(5-vinyl-pyridin-2-yl)-3,4-dihydro-2H-benzo[1,4]oxazin-3-yl]-methanol] was 20 to 100 nM; that for `C=Cc1ccc(N2c3cccc(-c4nc5c(Br)cc(C(F)(F)F)cc5[nH]4)c3OC[C@@H]2CO)nc1` [Example 64, [(S)-8-(4-bromo-6-trifluoromethyl-1H-benzimidazol-2-yl)-4-(5-vinyl-pyridin-2-yl)-3,4-dihydro-2H-benzo[1,4]oxazin-3-yl]-methanol] was less than 20 nM.
The value for `C=Cc1ccc(N2c3cccc(-c4nc5c(Cl)cc(C(F)(F)F)cc5[nH]4)c3OC[C@@H]2CO)nc1` [Example 65, [(S)-8-(4-chloro-6-trifluoromethyl-1H-benzimidazol-2-yl)-4-(5-vinyl-pyridin-2-yl)-3,4-dihydro-2H-benzo[1,4]oxazin-3-yl]-methanol] was less than 20 nM.
Take `C=Cc1ccc(N2c3cccc(-c4nc5cc(F)c(Cl)cc5[nH]4)c3OC[C@@H]2CO)nc1` [Example 70, [(S)-8-(6-chloro-5-fluoro-1H-benzimidazol-2-yl)-4-(5-vinyl-pyridin-2-yl)-3,4-dihydro-2H-benzo[1,4]oxazin-3-yl]-methanol]: the half-maximal inhibitory concentration (IC50) fell in the range of 20 to 100 nM.
